# Assay results reported in the supplement of paper PMC4862054.
# How the values were obtained:
# Assay in all cases: drug sensitivity score (DSS), CellTox Green (DSS (AUC-based score)); higher = stronger drug effect (viability inhibition or cytotoxicity); extreme values may be limits of the assay
# Conditions in all cases: incubation time: 72 h
# BT-474 = test system: BT-474
# In short: (§1)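 Breast cancer cell lines (20 µl suspension) were seeded into 384-well plates holding compound at 5 concentrations in 10-fold steps over a compound-specific 10,000-fold range, then incubated 72 h. CellTox Green fluorescence (485/520 nm) was read first, then CellTiter-Glo luminescence after 10 min at room temperature. Each plate was normalised to 0.1 % DMSO and a positive kill control. The drug sensitivity score was calculated from the area under the fitted dose-response curve.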
# BT-549 = test system: BT-549
# In short: as §1
# CAL-120 = test system: CAL-120
# In short: as §1
# CAL-148 = test system: CAL-148
# In short: as §1
# CAL-51 = test system: CAL-51
# In short: as §1
# CAL-85-1 = test system: CAL-85-1
# In short: as §1
# DU-4475 = test system: DU-4475
# In short: as §1
# HCC1143 = test system: HCC1143
# In short: as §1
# HCC1599 = test system: HCC1599
# In short: as §1
# HCC1937 = test system: HCC1937
# In short: as §1
# HDQ-P1 = test system: HDQ-P1
# In short: as §1
# Hs578T = test system: Hs578T
# In short: as §1
# MCF-10A = test system: MCF-10A
# In short: as §1
# MDA-MB-231 = test system: MDA-MB-231
# In short: as §1
# MDA-MB-436 = test system: MDA-MB-436
# In short: as §1
# MDA-MB-453 = test system: MDA-MB-453
# In short: as §1
# MDA-MB-468 = test system: MDA-MB-468
# In short: as §1
# MFM-223 = test system: MFM-223
# In short: as §1
SMILES,drug sensitivity score (BT-474),drug sensitivity score (BT-549),drug sensitivity score (CAL-120),drug sensitivity score (CAL-148),drug sensitivity score (CAL-51),drug sensitivity score (CAL-85-1),drug sensitivity score (DU-4475),drug sensitivity score (HCC1143),drug sensitivity score (HCC1599),drug sensitivity score (HCC1937),drug sensitivity score (HDQ-P1),drug sensitivity score (Hs578T),drug sensitivity score (MCF-10A),drug sensitivity score (MDA-MB-231),drug sensitivity score (MDA-MB-436),drug sensitivity score (MDA-MB-453),drug sensitivity score (MDA-MB-468),drug sensitivity score (MFM-223)
Nc1nc(Cl)nc2c1ncn2[C@@H]1O[C@H](CO)[C@@H](O)[C@@H]1F [Clofarabine],0,0,0,7.09,16.7,3.72,0,0,0,0,0,0,0,0,0,0,0.395,0
COc1cc2c(N3CCN(C(=O)Nc4ccc(OC(C)C)cc4)CC3)ncnc2cc1OCCCN1CCCCC1 [Tandutinib],0,0,0,0,0,0,0,0,0,0,0,0,0,0,0,0,0,0
CC(C)C[C@H](NC(=O)[C@H](CCc1ccccc1)NC(=O)CN1CCOCC1)C(=O)N[C@@H](Cc1ccccc1)C(=O)N[C@@H](CC(C)C)C(=O)[C@@]1(C)CO1 [Carfilzomib],8.3,8.43,17.2,19,24.4,24.8,0,0,0,18.4,19.1,16.7,9.99,24.1,19.2,0,37.2,14.4
Cc1cc2c(F)c(Oc3ncnn4cc(OC[C@@H](C)O)c(C)c34)ccc2[nH]1 [Brivanib],0,0,0,0,0,0.499,0,0,0,0,0,0,0,0,2.68,0,0,0
CCc1cnn2c(NCc3ccc[n+]([O-])c3)cc(N3CCCC[C@H]3CCO)nc12 [Dinaciclib],3.72,0,1.4,9.14,8.81,18.4,0,0,5.57,0,11.4,12.4,6.99,25.4,0,0,19.6,13.1
COc1cc2c(Oc3ccc(NC(=O)C4(C(=O)Nc5ccc(F)cc5)CC4)cc3F)ccnc2cc1OCCCN1CCOCC1 [Foretinib],0,0,0,1.71,4.29,0,0,1.04,0,0,0,2.65,0,10.4,0,0,3.1,0
CC(C)n1nc(-c2ccc3oc(N)nc3c2)c2c(N)ncnc21 [INK128],0,0,0,8.35,1.08,0,0,0,0,0,0,10.3,0,0,0,0,0,3.35
C[C@@H]1C[C@H]2[C@@H]3CCC4=CC(=O)C=C[C@]4(C)[C@@]3(F)[C@@H](O)C[C@]2(C)[C@@]1(O)C(=O)CO [Dexamethasone],0,0,0,0,0,0,0,0,0,0,0,1.94,3.19,0,0,0,0,0
CCCc1cc(C)[nH]c(=O)c1CNC(=O)c1cc(-c2ccnc(N3CCN(C)CC3)c2)cc2c1cnn2C(C)C [GSK343],5.28,0,0,0,0,2.18,0,0,1.18,0,0,4.43,0,7.22,0,6.47,0,7.62
Cn1cc(C[C@@H](N)C(=O)O)c2ccccc21 [1-methyl-D-tryptophan],0,0,0,0,0,0,0,0,0,0,1.12,3.13,0,0,0,0,1.22,0
CN1CCc2c(c3ccccc3n2Cc2ccc(C(=O)NO)cc2)C1 [Tubastatin A],0.156,0,0,0,7.48,0,0,10,0,0,0,0,0,2.06,0,0,1.42,0
CO[C@H](C(=O)[C@@H](O)[C@@H](C)O)[C@@H]1Cc2cc3cc(O[C@H]4C[C@@H](O[C@@H]5C[C@@H](O)[C@H](O)[C@@H](C)O5)[C@H](O)[C@@H](C)O4)c(C)c(O)c3c(O)c2C(=O)[C@H]1O[C@H]1C[C@@H](O[C@@H]2C[C@@H](O)[C@@H](O[C@@H]3C[C@](C)(O)[C@H](O)[C@@H](C)O3)[C@@H](C)O2)[C@H](O)[C@@H](C)O1 [Plicamycin],0,0,0,0,7.69,1.48,0,0,0,0,0,1.28,6.07,0,0,1.33,9.57,0
CC[C@H](CC#N)OC(=O)N[C@@H](C)c1cccc(NC(=O)Nc2ccc(-c3cnco3)c(OC)c2)c1 [AVN944],0,0,0,0,5.68,0,0,0,0,0,0,12.6,0,0,0,0,0,0
CC(C)NC[C@@H](C(=O)N1CCN(c2ncnc3c2[C@H](C)C[C@H]3O)CC1)c1ccc(Cl)cc1 [GDC-0068],0.545,0,0,14.1,2.24,0,0,0,0,0,0.469,0,0,0,0,0,3.49,1.29
Cc1c(C(=O)Nc2ccc(N3C[C@@H](C)O[C@@H](C)C3)nc2)cccc1-c1ccc(OC(F)(F)F)cc1 [Erismodegib],0,0,0,2.18,0,0,0,0,0,0,0,0,0,0.0859,0,0,0,0
